Holding throughout (format): cell-based, human
Assay [1] deals with EFNB2-tdTomato/EPHB4-EGFP dual reporter cells (H1 ES cells). The assay can be described thus: Arterial endothelial differentiation of EFNB2-tdTomato/EPHB4-EGFP dual reporter cells, flow cytometry. Particulars: for arterial endothelial cell differentiation (EFNB2-tdTomato high/EPHB4-EGFP low cells), factor added: added day 2 to day 6 to E5 + 50 ng/ml VEGFA + 10 μM SB431542, 5 μM L690, 5 μg/ml LDL, 100 ng/ml PDGF-BB, FIGS. 3E-3F; for EFNB2-tdTomato high/EPHB4-EGFP low cells, factor removed from five factors medium: individual removal, FIGS. 4A-4B; for arterial endothelial differentiation of human pluripotent stem cells (conclusion after FACS sorting and RT-qPCR): summary statement; for arterial specification (EFNB2-tdTomato and EPHB4-EGFP expression), factor added singly: added to Control medium (E5+100 ng/ml FGF2+10 μM SB431542): 50 ng/ml VEGF, 5 μM RESV or 50 ng/ml WNT3A, FIG. 11; for arterial differentiation (EFNB2-tdTomato high/EPHB4-EGFP low cells), factor removed: factor removed from the medium after mesoderm formation, day 2 to day 6, FIGS. 3A-3F; for EFNB2-tdTomato high/EPHB4-EGFP low cells / arterial differentiation, factor added to five factors medium: 100 ng/ml PDGF-BB or exogenous WNT3A, FIGS. 4A-4F, FIG. 9. The procedure:
(A) Flow cytometric analysis of EFNB2-tdTomato and EPHB4-EGFP expression on CD31 and CD144 gated endothelial cells. EFNB2-tdTomato/EPHB4-EGFP dual reporter cells (hetero knock-in in H1 cells for each gene) were first differentiated into mesoderm cells by E8BAC medium (E8 medium supplemented with BMP4, Activin-A, and CHIR99021). E5 (E8 medium minus FGF2, TGFβ1, and insulin) medium supplemented with 100 ng/ml FGF2, 50 ng/ml VEGFA, and 50 ng/ml BMP4 was used to induce mesoderm cells to differentiate into endothelial cells from day 2 to day 6. Either Insulin (20 μg/ml) or Ly294002 (16 μM, a PI3K inhibitor) was added to the medium as indicated from day 2 to day 6. (B) Statistics of EFNB2-tdTommato^high/EPHB4-EGFP^low cells. […] (C) Western blots showing AKT activity. Protein was harvested at day 3. (D) Flow cytometric analysis of EFNB2-tdTomato and EPHB4-EGFP expression on CD31 and CD144 gated endothelial cells. E5 medium supplemented with 50 ng/ml VEGFA, 50 ng/ml BMP4 or 10 μM SB431542 was used to induce mesoderm cells to differentiate into endothelial cells from day 2 to day 6. (E) Flow cytometric analysis of EFNB2-tdTomato and EPHB4-EGFP expression on CD31 and CD144 gated endothelial cells. ES cells were first differentiated into mesoderm cells as mentioned above. E5 medium supplemented with 50 ng/ml VEGFA and 10 μM SB431542 was used as the base medium induce mesoderm cells to differentiate into endothelial cells from day 2 to day 6. Other factors were added to the base medium as indicated. (F) Statistics of EFNB2-tdTomato^high/EPHB4-EGFP^low cells. […] FIGS. 4A-4H present flow cytometric analysis of expression of EphrinB2 and Ephrin Type B Receptor 4 reporter constructs (EFNB2-tdTomato and EPHB4-EGFP) on CD31- and CD144-gated endothelial cells obtained after differentiation in various medium, as described. FIG. 4B illustrates the percentage of arterial endothelial cells (AEC) (EFNB2-tdTomato^high/EPHB4-EGFP^low) obtained after differentiation in the various medium conditions of FIG. 4A. Data are represented as mean±SD. […] FIG. 4D illustrates the percentage of CXCR4^+CD144^+ arterial endothelial cells obtained after differentiation in the various medium conditions of FIG. 4C. […] FIG. 4F illustrates the percentage of DLL4^+CD144^+ arterial endothelial cells obtained after differentiation in the various medium conditions of FIG. 4E. 5 μM L-690,330 (a bisphosphonate inhibitor of inositol monophosphatase), and 100 ng/ml PDGF-BB (platelet derived growth factor BB) were used. […] FIGS. 11A-11C present arterial endothelial cell differentiation data. (A) Schematic of arterial endothelial cell differentiation protocol. ES cells were first differentiated into mesoderm cells by E8BAC medium (E8 medium supplemented with 5 ng/ml BMP4, 25 ng/ml Activin A, and 1 μM CHIR99021). E5 (E8 medium minus FGF2, TGFβ1, and insulin) medium supplemented with 100 ng/ml FGF2 and 10 μM SB431542 was then used to induce mesoderm cells to differentiate into endothelial cells. (B) Flow cytometric analysis of CD31 and CD34 expression. E5+100 ng/ml FGF2+10 μM SB431542 medium (“Control”) supplemented with 50 ng/ml VEGF, 5 μM RESV (resveratrol, a Notch activator), or 50 ng/ml WNT3A was used to induce mesoderm cells to differentiate into arterial endothelial cells. (C) Flow cytometric analysis of EFNB2-tdTomato and EPHB4-EGFP expression.
Background: Flow cytometry measures light scatter and fluorescence of single cells or particles in a stream.

For assay [2], the system named is CXCR4+CD144+ and DLL4+CD144+ arterial endothelial cells. The assay can be described thus: Flow cytometry of CXCR4/CD144 and DLL4/CD144 on differentiated endothelial cells. To be noted: FIGS. 4C-4F; for CXCR4 and DLL4 (CD144+CXCR4+ and CD144+DLL4+ cells), factor removed from five factors medium: individual removal. An excerpt: FIGS. 4A-4H present flow cytometric analysis of expression of EphrinB2 and Ephrin Type B Receptor 4 reporter constructs (EFNB2-tdTomato and EPHB4-EGFP) on CD31- and CD144-gated endothelial cells obtained after differentiation in various medium, as described. FIG. 4B illustrates the percentage of arterial endothelial cells (AEC) (EFNB2-tdTomato^high/EPHB4-EGFP^low) obtained after differentiation in the various medium conditions of FIG. 4A. Data are represented as mean±SD. […] FIG. 4D illustrates the percentage of CXCR4^+CD144^+ arterial endothelial cells obtained after differentiation in the various medium conditions of FIG. 4C. […] FIG. 4F illustrates the percentage of DLL4^+CD144^+ arterial endothelial cells obtained after differentiation in the various medium conditions of FIG. 4E. 5 μM L-690,330 (a bisphosphonate inhibitor of inositol monophosphatase), and 100 ng/ml PDGF-BB (platelet derived growth factor BB) were used. […] Arterial endothelial cell differentiation and expansion: It took six days for AECs differentiation. From day 0 to day 2, human ES/iPS cells were first differentiated into mesoderm cells as mentioned above. From day 2 to day 6, E5 medium was used and growth factors or small molecules were added as indicated. With the combination of “five factors,” AECs were induced by E5 medium supplemented with 100 ng/ml FGF, 50 ng/ml VEGF, 10 μM SB431542, 5 μM RESV, and 10 μM […] from day 2 to day 6.

Another assay concerns AKT. The assay can be described thus: Western blot of AKT activity (pAKT) during differentiation. Particulars: protein harvested at day 3, insulin 20 μg/ml, Ly294002 16 μM, FIG. 3C. The procedure: FIGS. 3A-3F present candidate pathways critical for arteriovenous specification. (A) Flow cytometric analysis of EFNB2-tdTomato and EPHB4-EGFP expression on CD31 and CD144 gated endothelial cells. EFNB2-tdTomato/EPHB4-EGFP dual reporter cells (hetero knock-in in H1 cells for each gene) were first differentiated into mesoderm cells by E8BAC medium (E8 medium supplemented with BMP4, Activin-A, and CHIR99021). E5 (E8 medium minus FGF2, TGFβ1, and insulin) medium supplemented with 100 ng/ml FGF2, 50 ng/ml VEGFA, and 50 ng/ml BMP4 was used to induce mesoderm cells to differentiate into endothelial cells from day 2 to day 6. Either Insulin (20 μg/ml) or Ly294002 (16 μM, a PI3K inhibitor) was added to the medium as indicated from day 2 to day 6. (B) Statistics of EFNB2-tdTommato^high/EPHB4-EGFP^low cells. Data are represented as mean±SD. *: P<0.05, n=5. (C) Western blots showing AKT activity. Protein was harvested at day 3. (D) Flow cytometric analysis of EFNB2-tdTomato and EPHB4-EGFP expression on CD31 and CD144 gated endothelial cells. E5 medium supplemented with 50 ng/ml VEGFA, 50 ng/ml BMP4 or 10 μM SB431542 was used to induce mesoderm cells to differentiate into endothelial cells from day 2 to day 6. (E) Flow cytometric analysis of EFNB2-tdTomato and EPHB4-EGFP expression on CD31 and CD144 gated endothelial cells. ES cells were first differentiated into mesoderm cells as mentioned above. […]
(In western blotting, separated proteins are transferred to a membrane and probed.)

“Also recorded” adds a separate entry of the source.

`CC(Oc1ccc(O)cc1)(P(=O)(O)O)P(=O)(O)O` [L-690,330, reference compound]: in assay [1], the “arterial endothelial cell differentiation (EFNB2-tdTomato high/EPHB4-EGFP low cells), factor added” value was “increased arterial endothelial cell differentiation”; the “EFNB2-tdTomato high/EPHB4-EGFP low cells, factor removed from five factors medium” value is “fewer”; the “arterial endothelial differentiation of human pluripotent stem cells (conclusion after FACS sorting and RT-qPCR)” value (“arterial endothelial differentiation” below) is given as “promote arterial endothelial differentiation”. Moreover, the “CXCR4 and DLL4 (CD144+CXCR4+ and CD144+DLL4+ cells), factor removed from five factors medium” value (from here on “CXCR4 and DLL4”) in assay [2] is recorded as “no reduction”.
For the molecule `Oc1ccc(C=Cc2cc(O)cc(O)c2)cc1` [RESV, 3,4′,5-trihydroxystilbene, reference compound], in assay [1], the “arterial specification (EFNB2-tdTomato and EPHB4-EGFP expression), factor added singly” value is “promoted increased arterial specification”; the “EFNB2-tdTomato high/EPHB4-EGFP low cells, factor removed from five factors medium” value is reported as “decrease”.
Turning to `NC(=O)c1ccc(-c2nc(-c3ccc4c(c3)OCO4)c(-c3ccccn3)[nH]2)cc1` [SB431542, reference compound], in assay [1], the “arterial differentiation (EFNB2-tdTomato high/EPHB4-EGFP low cells), factor removed” value is on record as “inhibited arterial differentiation” and the “EFNB2-tdTomato high/EPHB4-EGFP low cells, factor removed from five factors medium” value is recorded as “decrease”. The “CXCR4 and DLL4” value in assay [2] is “decreased”.
For FGF2: human fibroblast growth factor 2, in assay [1], the “arterial endothelial cell differentiation (EFNB2-tdTomato high/EPHB4-EGFP low cells), factor added” value was “increased arterial endothelial cell differentiation”; the “EFNB2-tdTomato high/EPHB4-EGFP low cells, factor removed from five factors medium” value was “decrease”; the “arterial endothelial differentiation” value is “promote arterial endothelial differentiation”. The “CXCR4 and DLL4” value in assay [2] is reported as “decreased”.
As for TGF-β, the “arterial endothelial differentiation” value in assay [1] was “inhibit arterial endothelial differentiation”.
In the case of “insulin: insulin, medium component, activates AKT”, in assay [1], the “arterial differentiation (EFNB2-tdTomato high/EPHB4-EGFP low cells), factor removed” value is “triggered AEC differentiation”; the “arterial endothelial differentiation” value is “inhibit arterial endothelial differentiation”. In the assay on AKT, the “Phosphorylated AKT (pAKT)” value was “increased”.

B1: WNT3A: recombinant protein, Wnt signaling factor added to medium (protein, UniProt P56704 19-352, looked up)
Protein Wnt-3a: SYPIWWSLAVGPQYSSLGSQPILCASIPGLVPKQLRFCRNYVEIMPSVAEGIKIGIQECQHQFRGRRWNCTTVHDSLAIFGPVLDKATRESAFVHAIASAGVAFAVTRSCAEGTAAICGCSSRHQGSPGKGWKWGGCSEDIEFGGMVSREFADARENRPDARSAMNRHNNEAGRQAIASHMHLKCKCHGLSGSCEVKTCWWSQPDFRAIGDFLKDKYDSASEMVVEKHRESRGWVETLRPRYTYFKVPTERDLVYYEASPNFCEPNPETGSFGTRDRTCNVSSHGIDGCDLLCCGRGHNARAERRREKCRCVFHWCCYVSCQECTRVYDVHTCK
As for B1, in assay [1], the “EFNB2-tdTomato high/EPHB4-EGFP low cells / arterial differentiation, factor added to five factors medium” value was “did not further increase arterial differentiation”; the “arterial specification (EFNB2-tdTomato and EPHB4-EGFP expression), factor added singly” value was “promoted increased arterial specification; also recorded: promoted arterial differentiation”.

B2: PDGF-BB: platelet derived growth factor BB (protein, UniProt P01127 82-190, looked up)
Platelet-derived growth …: SLGSLTIAEPAMIAECKTRTEVFEISRRLIDRTNANFLVWPPCVEVQRCSGCCNNRNVQCRPTQVQLRPVQVRKIEIVRKKPIFKKATVTLEDHLACKCETVAAARPVT
modifications: homodimer
Turning to B2, in assay [1], the “EFNB2-tdTomato high/EPHB4-EGFP low cells / arterial differentiation, factor added to five factors medium” value is listed as “fewer”; the “arterial endothelial cell differentiation (EFNB2-tdTomato high/EPHB4-EGFP low cells), factor added” value was “inhibited arterial differentiation”; the “arterial endothelial differentiation” value is recorded as “inhibit arterial endothelial differentiation”. Further, the “CD144+CXCR4+ and CD144+DLL4+ cells, factor added to five factors medium” value in assay [2] (100 ng/ml PDGF-BB) is given as “no reduction”.

Values taken from patent US11674123B2, “Generating arterial endothelial cell populations” (Wisconsin Alumni Research Foundation, priority 2015, dated 2023).
